Assay results as given in patent EP0401517A1, “Substituted 2-alkynylphenols with anti-inflammatory action, a process for their preparation and pharmaceutical compositions thereof” (CAMILLO CORVI S.p.A., priority 1989, dated 1990).

Columns and labels:
5-lipo-oxygenase = biological target: T1, 5-lipo-oxygenase (Oryctolagus cuniculus, UniProt G1SNX0); experiment: In vitro 5-lipo-oxygenase activity: formation of leukotriene B4 from [14C] arachidonic acid in calcium ionophore A23187 stimulated rabbit leukocytes (radiometric T.L.C. assay); format: cell-based; conditions: read-out: 5-LO (% of inhibition at 10 µM)
T1 construct: a preparation of calcium ionophore A23187 stimulated rabbit leukocites; endogenous in cells; host or cells: rabbit leukocytes
T1 sequence (G1SNX0 1-674): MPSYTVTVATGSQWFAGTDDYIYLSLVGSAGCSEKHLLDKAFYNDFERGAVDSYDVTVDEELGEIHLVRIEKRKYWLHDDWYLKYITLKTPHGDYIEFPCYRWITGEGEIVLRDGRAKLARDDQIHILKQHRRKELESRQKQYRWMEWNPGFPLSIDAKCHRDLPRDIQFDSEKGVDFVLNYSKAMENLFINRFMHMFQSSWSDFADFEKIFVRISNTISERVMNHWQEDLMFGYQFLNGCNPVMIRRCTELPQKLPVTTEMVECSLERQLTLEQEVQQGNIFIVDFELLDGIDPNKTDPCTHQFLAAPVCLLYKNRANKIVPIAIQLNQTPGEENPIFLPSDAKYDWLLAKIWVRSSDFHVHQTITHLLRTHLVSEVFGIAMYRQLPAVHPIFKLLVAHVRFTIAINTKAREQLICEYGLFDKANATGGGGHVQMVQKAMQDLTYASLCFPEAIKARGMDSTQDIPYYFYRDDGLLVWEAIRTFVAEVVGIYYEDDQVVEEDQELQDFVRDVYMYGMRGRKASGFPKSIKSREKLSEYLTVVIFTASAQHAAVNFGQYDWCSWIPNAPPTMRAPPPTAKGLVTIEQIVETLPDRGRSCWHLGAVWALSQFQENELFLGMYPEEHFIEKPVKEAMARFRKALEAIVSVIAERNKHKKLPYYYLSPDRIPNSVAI
Procedure: (§1) These new products are active in vitro as inhibitors of cyclo-oxygenase (malondialdehyde production test in guinea pig lung homogenates) and/or of the 5-lipo-oxygenase (A23187 stimulated rabbit leucocytes test).
The formation of leukotriene B₄ from [¹⁴C] arachidonic acid in a preparation of calcium ionophore A23187 stimulated rabbit leukocites is measured by means of a slightly modified radiometric T.L.C.assay based on published procedures (Beetens, J.R. et al. BIOCHEM. PHARMACOL 35 (6); 883, 1986).
(§2) In Table I below the results of the comparisons of 8 inventive compounds with 3 prior art compounds are shown. In column "CO" the data concerning cyclo-oxygenase, and in column "5-LO" those concerning 5-lipo-oxygenase are shown.

cyclo-oxygenase = experiment: In vitro cyclo-oxygenase activity: malondialdehyde production in guinea pig lung homogenate incubated with arachidonic acid and cofactors; format: biochemical
Procedure: as §1
The cyclooxygenase activity is determined according to the method of Luzzani et al. (Luzzani, F., et al. INT. J. TISS. REAC. X(2); 79-83, 1988), by monitoring the production of malondialdehyde in a guinea pig lung homogenate incubated in the presence of arachidonic acid and cofactors.
as §2

Row | SMILES | inhibition at 10 µM (5-lipo-oxygenase) | CO (% of inhibition at 10 µM) (cyclo-oxygenase)
1 | CC(Cc1ccc(O)c(O)c1)C(C)Cc1ccc(O)c(O)c1 (stereo not drawn) [NORDIHYDROGUAIARETIC ACID, reference compound] | 92% | 5%
2 | CC(C#Cc1ccccc1)c1cc(OCc2ccccc2)ccc1O (stereo not drawn) [CP/1864, 4-Benzyloxy-2-(4-phenyl-3-butyne-2-yl)phenol] | 68% | 0%
3 | COc1cccc(CC#Cc2ccccc2)c1O [CO/1826, 2-(3-Phenyl-2-propynyl)-6-methoxyphenol] | 52% | 66%
4 | COc1ccc(O)c(CC#Cc2ccccc2)c1 [CO/1828, 2-(3-Phenyl-2-propynyl)-4-metoxyphenol] | 57% | 50%
5 | CCCCCCC#CCc1cc(OC)ccc1O [CO/1837, 4-Methoxy-2-(2-nonynyl)phenol] | 92% | 52%
6 | NC1=NN(c2cccc(C(F)(F)F)c2)CC1 [BW 755 c, reference compound] | 25% | 30%
7 | COc1ccc(O)c(C(C)C#Cc2ccccc2)c1 (stereo not drawn) [CO/1863, 2-(4-Phenyl-3-butyne-2-yl)-4-methoxyphenol] | 46% | 23%
8 | COc1ccc2c(c1)c(CC(=O)O)c(C)n2C(=O)c1ccc(Cl)cc1 [INDOMETHACIN, reference compound] | 0% | 98%
9 | Oc1cccc(CC#Cc2ccccc2)c1O [CO:1841, 3-(3-Phenyl-2-propynyl)pyrocatechol] | 90% | 26%
